ChEMBL document CHEMBL1201862, “PubChem BioAssay data set” (2004)
Calls of active or inactive are those of the source.

Legend:
Nonstructural protein 1 = Nonstructural protein 1 (Influenza A virus, UniProt Q194T2); assay type: functional, Influenza A virus (A/California/07/2009(H1N1))
Protein Tat = target: T1, Protein Tat (Human immunodeficiency virus type 1 group M subtype B (isolate HXB2)(HIV-1), UniProt P04608); assay type: functional;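 also: tat binding to TAR RNA read out by fluorescence polarization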
T1 sequence (P04608 whole entry): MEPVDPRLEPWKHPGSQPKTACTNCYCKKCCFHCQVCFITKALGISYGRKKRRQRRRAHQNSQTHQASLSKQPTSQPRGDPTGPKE

[1] = Vero cell cytotoxicity, dose response, cytotoxicity control for Vif-APOBEC3G degradation inhibitor project, Vero cells (AID 1117358); assay type: functional; settings: Human immunodeficiency virus 1, Vero
[2] = Luminescence-based cell-based high throughput dose response assay to identify activators of the DAF-12 from the parasite S. stercoralis (ssDAF-12).; assay type: functional
[3] = target: T2, Oxysterols receptor LXR-beta (Homo sapiens, UniProt P55055); test: LXR agonists, Gal4 luciferase reporter, dose response, counter-screen for ssDAF-12 agonist project, cell-based, luminescence, HEK293, S. stercoralis campaign (AID 720737); assay type: functional; settings: read-out: IC50 (the source's name)
T2 sequence (P55055 whole entry): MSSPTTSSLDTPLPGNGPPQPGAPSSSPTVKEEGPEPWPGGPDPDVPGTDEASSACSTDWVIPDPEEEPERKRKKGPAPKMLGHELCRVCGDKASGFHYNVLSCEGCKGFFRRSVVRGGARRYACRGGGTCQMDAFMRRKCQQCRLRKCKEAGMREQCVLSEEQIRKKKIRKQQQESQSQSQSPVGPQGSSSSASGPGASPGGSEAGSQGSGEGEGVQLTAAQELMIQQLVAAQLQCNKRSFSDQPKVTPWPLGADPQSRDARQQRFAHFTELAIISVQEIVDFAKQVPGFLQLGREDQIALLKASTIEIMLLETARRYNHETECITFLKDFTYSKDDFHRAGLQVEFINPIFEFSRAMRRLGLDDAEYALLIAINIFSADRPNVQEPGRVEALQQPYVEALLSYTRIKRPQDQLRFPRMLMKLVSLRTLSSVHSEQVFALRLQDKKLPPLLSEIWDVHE

[4] = NIH:OVCAR-3 ovarian cancer cell cytotoxicity, dose response, PAX8 inhibitor project, plate reader, dry powder samples (AID 743044); assay type: functional, cell-based
Paired box protein Pax-8 = Paired box protein Pax-8 (Homo sapiens, UniProt Q06710); test: inhibitors of PAX8-driven TPO luciferase reporter, dose response, RMG-I cells, cherry-pick (AID 687027); assay type: functional, cell-based;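 also: luciferase reporter driven by Pax8 target thyroperoxidase promoter measured by SteadyGlo luminescence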
Chain of Paired box protein Pax-8 (Q06710 whole entry): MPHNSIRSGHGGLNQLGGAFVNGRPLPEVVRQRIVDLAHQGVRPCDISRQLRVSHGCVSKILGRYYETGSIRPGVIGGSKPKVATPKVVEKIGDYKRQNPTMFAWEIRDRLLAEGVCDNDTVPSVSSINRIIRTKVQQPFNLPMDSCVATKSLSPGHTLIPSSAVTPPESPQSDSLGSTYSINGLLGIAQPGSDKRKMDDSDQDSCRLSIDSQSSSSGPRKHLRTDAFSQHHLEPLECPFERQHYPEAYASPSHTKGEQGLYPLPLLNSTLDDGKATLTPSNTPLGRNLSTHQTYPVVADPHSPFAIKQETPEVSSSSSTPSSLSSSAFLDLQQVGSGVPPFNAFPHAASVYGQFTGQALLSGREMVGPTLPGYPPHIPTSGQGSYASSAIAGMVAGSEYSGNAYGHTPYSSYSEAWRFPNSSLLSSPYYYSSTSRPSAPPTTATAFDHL

[5] = non-specific cell cytotoxicity, dose response, cytotoxicity control for PAX8 inhibitor project, plate reader, dry powder samples (AID 743021); assay type: functional, cell-based
Kallikrein-7 = Kallikrein-7 (Homo sapiens, UniProt P49862); test: Fluorescence Intensity-based biochemical primary high throughput dose response assay to identify activators of kallikrein-7 (K7) zymogen.
Chain of Kallikrein-7 (P49862 whole entry): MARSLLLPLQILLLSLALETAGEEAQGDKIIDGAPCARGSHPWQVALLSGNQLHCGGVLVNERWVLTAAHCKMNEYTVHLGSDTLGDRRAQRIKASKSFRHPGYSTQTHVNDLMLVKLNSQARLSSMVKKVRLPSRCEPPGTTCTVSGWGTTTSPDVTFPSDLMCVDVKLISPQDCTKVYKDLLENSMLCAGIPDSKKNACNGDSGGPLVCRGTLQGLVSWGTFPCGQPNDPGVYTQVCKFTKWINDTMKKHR

[6] = MC4R antagonists, dose response, counter-screen for LGR2 antagonist project, cell-based, plate reader, cherry pick (AID 743444); assay type: functional;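 also: transfected HEK 293 cells stimulated with alpha-MSH peptide; potency of inhibitors of the alpha-MSH evoked signal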
[7] = HEK293 cell cytotoxicity, dose response, cytotoxicity control, plate reader, cherry-picked samples (AID 743446); assay type: functional, cell-based
cells = assay type: functional
[8] = A549 cell cytotoxicity, dose response, cytotoxicity control, plate reader, cherry-pick, antagonist series (AID 743412); assay type: functional, cell-based
[9] = LGR2 antagonists, dose response, cell-based, HEK293, CRE-luciferase reporter, cherry pick, set 2 (AID 743343); assay type: functional;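 also: transfected cells were stimulated with diluted bursicon conditioned medium after compound addition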
[10] = P. falciparum Dd2 growth inhibitors, dose response, SYBR Green, cherry-picked samples (AID 1159567); assay type: functional, cell-based
[11] = P. falciparum ATP4 D1247Y mutant growth inhibitors, dose response, NITD609-resistant line, SYBR Green, dry powder (AID 1159571); assay type: functional, cell-based;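 also: parasites synchronized at ring stage by sorbitol before testing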
[12] = P. falciparum Dd2 growth inhibitors, dose response, SYBR Green, dry powder samples (AID 1159566); assay type: functional, cell-based;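 also: potency for growth inhibition with lower SYBR green DNA signal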
[13] = P. falciparum 3D7-ScDHODH growth inhibitors, dose response, SYBR Green, dry powder samples (AID 1159570); assay type: functional, cell-based;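 also: parasite growth measured after 72 hours of compound exposure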
[14] = T. cruzi growth inhibition in host cells, dose response, cell-based, plate reader, dry powder, set 2 (AID 652275); assay type: functional
[15] = target: T3, Histone-lysine N-methyltransferase NSD2 (Homo sapiens, UniProt O96028); assay type: biochemical
T3 sequence (O96028 whole entry): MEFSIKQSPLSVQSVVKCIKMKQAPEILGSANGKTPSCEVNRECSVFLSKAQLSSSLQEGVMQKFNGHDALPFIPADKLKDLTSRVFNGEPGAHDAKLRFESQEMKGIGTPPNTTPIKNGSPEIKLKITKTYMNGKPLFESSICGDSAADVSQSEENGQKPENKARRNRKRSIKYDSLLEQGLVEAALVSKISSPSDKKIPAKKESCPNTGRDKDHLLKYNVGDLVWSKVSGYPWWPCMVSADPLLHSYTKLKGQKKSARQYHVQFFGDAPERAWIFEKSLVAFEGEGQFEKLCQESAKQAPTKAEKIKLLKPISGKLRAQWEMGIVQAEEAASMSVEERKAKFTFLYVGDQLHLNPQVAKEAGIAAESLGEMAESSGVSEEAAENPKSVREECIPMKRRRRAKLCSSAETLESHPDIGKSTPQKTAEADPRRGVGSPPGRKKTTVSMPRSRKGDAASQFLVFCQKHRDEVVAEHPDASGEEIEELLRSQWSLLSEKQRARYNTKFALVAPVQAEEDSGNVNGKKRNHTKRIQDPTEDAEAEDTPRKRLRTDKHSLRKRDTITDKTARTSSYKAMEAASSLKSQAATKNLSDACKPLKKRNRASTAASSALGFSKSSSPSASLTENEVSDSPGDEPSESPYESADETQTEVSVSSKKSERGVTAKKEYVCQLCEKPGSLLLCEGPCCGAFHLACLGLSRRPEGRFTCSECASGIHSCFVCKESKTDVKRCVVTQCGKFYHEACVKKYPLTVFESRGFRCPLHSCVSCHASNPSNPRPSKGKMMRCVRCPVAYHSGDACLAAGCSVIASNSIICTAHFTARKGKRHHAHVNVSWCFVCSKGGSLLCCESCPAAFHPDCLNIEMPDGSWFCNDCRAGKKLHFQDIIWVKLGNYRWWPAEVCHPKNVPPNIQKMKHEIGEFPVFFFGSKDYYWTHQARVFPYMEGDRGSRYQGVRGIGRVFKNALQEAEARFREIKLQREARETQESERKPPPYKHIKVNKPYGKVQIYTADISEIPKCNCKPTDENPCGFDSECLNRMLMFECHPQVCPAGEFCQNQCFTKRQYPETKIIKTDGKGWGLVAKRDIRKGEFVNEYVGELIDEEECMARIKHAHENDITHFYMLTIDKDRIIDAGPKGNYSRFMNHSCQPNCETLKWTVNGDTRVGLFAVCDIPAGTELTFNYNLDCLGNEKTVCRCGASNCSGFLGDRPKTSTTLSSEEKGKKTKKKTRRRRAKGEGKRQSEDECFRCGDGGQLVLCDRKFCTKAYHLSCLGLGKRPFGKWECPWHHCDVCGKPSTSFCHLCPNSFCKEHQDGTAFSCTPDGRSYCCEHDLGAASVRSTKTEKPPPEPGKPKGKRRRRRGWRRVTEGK

[16] = target: T4, DNA repair and recombination protein RAD54-like (Homo sapiens, UniProt Q92698); test: inhibitors of human RAD54 branch migration, confirmation, biochemical, fluorescence, cherry-picked samples, dose series (AID 651657); assay type: functional
T4 sequence (Q92698 whole entry): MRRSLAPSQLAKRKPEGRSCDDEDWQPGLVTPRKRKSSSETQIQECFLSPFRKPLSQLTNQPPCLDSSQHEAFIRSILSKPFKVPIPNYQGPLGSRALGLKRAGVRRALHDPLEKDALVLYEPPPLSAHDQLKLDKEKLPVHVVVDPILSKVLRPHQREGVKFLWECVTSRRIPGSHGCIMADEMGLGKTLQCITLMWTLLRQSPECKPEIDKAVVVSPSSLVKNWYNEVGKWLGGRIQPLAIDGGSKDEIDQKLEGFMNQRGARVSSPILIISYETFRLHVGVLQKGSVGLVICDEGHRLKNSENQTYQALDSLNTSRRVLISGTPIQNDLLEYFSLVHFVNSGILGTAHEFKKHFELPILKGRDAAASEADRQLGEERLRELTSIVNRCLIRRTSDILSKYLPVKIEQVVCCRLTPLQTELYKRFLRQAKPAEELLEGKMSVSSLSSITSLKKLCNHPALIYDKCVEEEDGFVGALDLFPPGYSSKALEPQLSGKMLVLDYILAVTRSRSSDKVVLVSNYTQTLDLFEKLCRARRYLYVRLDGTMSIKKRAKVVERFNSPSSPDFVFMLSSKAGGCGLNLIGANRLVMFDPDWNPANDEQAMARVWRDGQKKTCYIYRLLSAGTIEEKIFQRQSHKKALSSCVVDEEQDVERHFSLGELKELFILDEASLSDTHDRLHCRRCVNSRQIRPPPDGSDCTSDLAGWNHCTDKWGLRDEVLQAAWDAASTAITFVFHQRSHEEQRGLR

Chain of Nonstructural protein 1 (Q194T2 whole entry): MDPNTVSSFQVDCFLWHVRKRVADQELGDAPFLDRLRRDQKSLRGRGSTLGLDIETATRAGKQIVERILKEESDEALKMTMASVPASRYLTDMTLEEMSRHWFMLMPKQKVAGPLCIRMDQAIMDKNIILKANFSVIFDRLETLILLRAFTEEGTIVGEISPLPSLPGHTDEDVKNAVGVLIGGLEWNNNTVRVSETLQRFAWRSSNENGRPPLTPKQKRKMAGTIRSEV

Structure (SMILES): O=C1CC(Nc2ccc(N3CCOCC3)cc2)C(=O)N1c1cccc(C(F)(F)F)c1 (centres undefined)
- IC50 (Nonstructural protein 1): > 100 µM (active)
- IC50 (Protein Tat): 29.5 µM (inconclusive)

Structure (SMILES): COC(=O)C1=C(N)Oc2cc(C)n(Cc3cccnc3)c(=O)c2C1c1cccc(OC)c1OC (centres undefined)
- CC50 [1]: > 40 µM (active)

Structure (SMILES): C(=N\Nc1nc2ccccc2s1)/c1ccc2c(c1)OCO2
- IC50 [2]: > 67.5 µM (inactive)
- EC50 [3]: > 67.5 µM (inactive)

Structure (SMILES): CC(C)CC#Cc1ccc2c(c1)O[C@H](CN(C)Cc1ccc(C(=O)O)cc1)[C@@H](C)CN([C@H](C)CO)S2(=O)=O
- AC50 [4]: 57.2 µM (active)
- AC50 (Paired box protein Pax-8): 19.3 µM (active)
- AC50 [5]: 48 µM (active)

Structure (SMILES): C[C@@H]1CN([C@H](C)CO)C(=O)c2cc(NS(=O)(=O)c3ccc(Cl)cc3)ccc2O[C@@H](C)CCCCO[C@@H]1CN(C)Cc1ccccc1
- AC50 (Paired box protein Pax-8): 4.7 µM (active)
- AC50 [5]: 43 µM (active)

Structure (SMILES): O=C(O)CCc1nn2c3ccccc3nc2n(CCN2CCCCC2)c1=O
- EC50 (Kallikrein-7): 34.8 µM (inactive)

Structure (SMILES): COC(=O)c1cc(-c2ccc(OC)cc2)nc2nc(SC)[nH]c(=O)c12
- EC50 (Kallikrein-7): 48 µM (inactive)

Structure (SMILES): O=C(COc1ccc2c(c1)CCC2)Nc1ccccn1
- AC50 [6]: 6.74 µM (active)
- AC50 [7]: 33.3 µM (active)
- IC50 (cells): 39.2 µM (active)
- AC50 [8]: 45.3 µM (active)
- AC50 [9]: 7.18 µM (active)

Structure (SMILES): COc1ccc2c3c(n(C)c2c1)[C@@H](CO)N(C(=O)Nc1ccc(F)cc1)CC31CCN(Cc2ccccn2)CC1
- AC50 [10]: 3.18 µM (active)
- AC50 [11]: 2.11 µM (active)
- AC50 [12]: 2.05 µM (active)
- AC50 [13]: 1.69 µM (active)

Structure (SMILES): CN(C)C(=O)c1cccc(-c2ccc([C@@H]3[C@H](CO)N4CCCCN(C(=O)C5CCC5)C[C@@H]34)cc2)c1
- AC50 [14]: 4.83 µM (active)

Structure (SMILES): CCNCCNc1ccc([N+](=O)[O-])c2cccnc12
- AC50 [15]: 13.6 µM (active)
- AC50 [16]: 29.7 µM (active)
